How the values were obtained:
[1] = system: immortalized human HaCaT keratinocytes; test: Cell proliferation assay (MTT); assay type: cell-based; details: 72 h; for Effect on HaCaT cell viability/proliferation (MTT), in words / Effect on HaCaT cell viability (MTT), in words: serum-free DMEM; for Effect on HaCaT cell viability/proliferation (MTT), in words: whole range 1–50 μg/mL, vs. control without peptide, triplicate; for Effect on HaCaT cell viability (MTT), in words: peptide at 50 μg/mL; for Concentration above which the conjugate is cytotoxic: MTT, cell type not named in the sentence (keratinocytes and fibroblasts tested)
Procedure: In our study two kind of cells were used: immortalized human HaCaT keratinocytes (DKFZ Heidelberg, Germany) and primary dermal fibroblasts obtained from 3 healthy donors. Both types of the used cell lines were grown in Dulbecco's modified Eagle's medium (DMEM) (Sigma–Aldrich, Germany), that contained […] of glucose, […] of L-glutamine, sodium pyruvate and sodium bicarbonate. Additionally, medium was supplemented with 10% of FCS (fetal calf serum, Sigma-Aldrich, Germany), 100 U/mL of penicillin and 100 μg/mL streptomycin (Sigma-Aldrich, Germany). The cells were grown in culture dishes (BD, USA) under standard conditions in a humidified atmosphere with 5% CO2 at 37°C and medium was changed every 2 days.
The fibroblasts and keratinocytes were seeded at density of 4500 and 6000 cells per well, respectively, into 96-well plates suspended in a medium supplemented with 10% of FCS. After 24 h the media were exchanged with serum- and antibiotic- free DMEM and tested peptides dissolved in PBS were added yielding final concentration ranging from 1 to 50 μg/mL. Cells were incubated for the next 24 hours, when the medium was exchanged again and fresh portion of peptides (used at the same concentrations as previously) was added. Incubation was continued for the next 48 hours (the overall time of cell exposition to peptide was 72 h). At the end of the experiment cells were treated with 20 μL of MTT (5 mg/mL in PBS). After 3 h at 37°C under 5% CO2 medium was discarded and replaced by 6mM HCl in isopropanol. After 15 min when the purple crystals of formazan were fully solubilized, absorbance was read at 570 nm with a plate reader. The optical density reflects the level of cell viability as MTT is converted in purple formazan product only in the presence of viable mitochondria of the living cells.
Fig 1 Pro-proliferative activity of the tested peptides towards human keratinocytes (A) and fibroblasts (B). Cells were incubated for 72 hours in serum-free DMEM medium in the presence of peptides applied at concentrations of 1,10, 25 and 50 μg/mL, respectively. The data represents results of MTT assay expressed as the percentage of the cell viability in comparison to their control sample (cells incubated in serum-free DMEM without tested peptides), additional positive control corresponds to the cells incubated in the presence of 10% FCS. All experiments were performed independently in triplicate. *P < 0.05, **P < 0.01, ***P < 0.001 vs. control.
In order to evaluate a long-term effect of peptides, experiments were carried out for 72 hours. Before addition of the tested compounds, the cell medium was exchanged for the fresh one not containing any serum or antibiotic.

[2] = system: B. cereus; assay type: cell-based; details: broth microdilution, Mueller-Hinton broth, approximately 10^5 CFU/mL, 37°C, 24 h, absorbance 590 nm, at least triplicate
Method in brief: (§1)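 Peptides serially diluted in PBS at 2–250 μg/mL before inoculum addition, then inoculated with ~10^5 CFU/mL exponential-phase bacteria in double-strength Mueller-Hinton broth. Plates incubated overnight at 37°C, with growth read as absorbance at 590 nm after 24 h. MIC determined in at least triplicate.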

[3] = system: B. subtilis; assay type: cell-based; details: broth microdilution, Mueller-Hinton broth, approximately 10^5 CFU/mL, 37°C, 24 h, absorbance 590 nm, at least triplicate
Method in brief: as §1

[4] = system: Candida glabrata (CCM 8270); assay type: cell-based; details: broth microdilution, Mueller-Hinton broth + 2% glucose, about 2.5 x 10^3 CFU/mL, 37°C, 24 h, absorbance 590 nm, at least triplicate
Method in brief: (§2)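 Broth microdilution MIC: peptides serially diluted in PBS (2 to 250 μg/mL) were mixed with double-concentrated Mueller-Hinton broth inoculum, about 10^5 CFU/mL for bacteria or about 2.5 x 10^3 CFU/mL for Candida (broth supplemented with 2% glucose). After incubation at 37°C, absorbance at 590 nm was read at 24 h, in at least triplicate.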

[5] = system: Candida tropicalis (CCM 8264); assay type: cell-based; details: broth microdilution, Mueller-Hinton broth + 2% glucose, about 2.5 x 10^3 CFU/mL, 37°C, 24 h, absorbance 590 nm, at least triplicate
Method in brief: as §2

[6] = system: Candida albicans (CCM 8186); assay type: cell-based; details: broth microdilution, Mueller-Hinton broth + 2% glucose, about 2.5 x 10^3 CFU/mL, 37°C, 24 h, absorbance 590 nm, peptide 2 to 250 μg/mL, at least triplicate
Method in brief: as §2

[7] = Circular dichroism, alpha-helical content; assay type: physicochemical; details: CD, mean residue ellipticity at 222 nm (Eq 1), peptide 0.4 mg/ml in 30 mM SDS, room temperature

Substance | Effect on HaCaT cell viability/proliferation (MTT), in words [1] | MIC B. cereus [2] | MIC B. subtilis [3] | MIC C.glabrata [4] | MIC C.tropicalis [5] | MIC C. albicans [6] | α-helicity [7] | Effect on HaCaT cell viability (MTT), in words [1] | Concentration above which the conjugate is cytotoxic [1]
IKKILSKIKKLL-NH2 [DK5, Lys-rich derivative of amphibian AMP temporin-1CEb, …-NH2, reference compound] | negative dose-response relationship | >125 µg/mL | 15.6 µg/mL | 62.5 µg/mL | < 2 µg/mL | 31.3 µg/mL | 29% | – | –
YAGFLR-PEG-IKKILSKIKKLL-NH2 [DAL-PEG-DK5, conjugate of dalargin and DK5 joined by PEG-linker] | negative dose-response relationship | 25 µg/mL | 2.0 µg/mL | 125 µg/mL | <2 µg/mL | 25 µg/mL | 35% | lowest cell viability | higher than 25 μg/mL
YAGFLR-PEG-IKKILSKIKKLLK-NH2 [DAL-PEG-LK6, conjugate of dalargin and LK6 joined by PEG-linker] | – | 12.5 µg/mL | 7.8 µg/mL | >125 µg/mL | 3.9 µg/mL | 25 µg/mL | 25% | cytotoxic effect | higher than 25 μg/mL

From publication PMC4608580, “Synthesis and Evaluation of Biological Activity of Antimicrobial – Pro-Proliferative Peptide Conjugates” (PLoS ONE, 2015)
